These results are taken from patent publication US5776929A, “Benzodiazepine derivative” (Shionogi & Co., Ltd., priority 1993, dated 1998).

For orientation: IC50 means the point on the concentration scale where inhibition reaches its midpoint.

For one assay, the target named is T1, CCK-A receptor (Mus musculus, UniProt O08786).
T1 construct: crude membrane specimen from mouse pancreas; from tissue; host or cells: pancreas of male ddY mice, crude membranes
T1 sequence (O08786 1-436): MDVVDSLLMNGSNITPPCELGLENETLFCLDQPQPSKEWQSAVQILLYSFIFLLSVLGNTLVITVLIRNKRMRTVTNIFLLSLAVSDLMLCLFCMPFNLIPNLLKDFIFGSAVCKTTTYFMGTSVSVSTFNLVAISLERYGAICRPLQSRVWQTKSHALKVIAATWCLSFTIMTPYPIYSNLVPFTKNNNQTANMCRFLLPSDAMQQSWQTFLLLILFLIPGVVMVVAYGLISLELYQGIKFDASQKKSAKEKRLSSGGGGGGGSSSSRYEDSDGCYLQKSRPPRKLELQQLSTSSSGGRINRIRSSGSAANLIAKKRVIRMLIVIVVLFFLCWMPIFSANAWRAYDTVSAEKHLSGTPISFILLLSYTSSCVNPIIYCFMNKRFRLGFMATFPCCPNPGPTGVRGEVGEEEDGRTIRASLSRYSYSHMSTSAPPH
Put plainly: CCK-A receptor antagonism, displacement of [3H]CCK-8, pancreas crude membrane. To be noted: mouse pancreas membrane, [3H]CCK-8 1 nM, 90 min, 25 °C; read-out: Receptor CCK-A (IC50). It is filed as binding, mouse (male ddY). On the procedure:
(§1) Male Hartley guinea pig (450-600 g) or male ddY mouse (24-30 g) were used.
(§2) (2) CCK-A Receptor Antagonism and CCK-B Receptor Antagonism
(§3) Preparation of CCK receptor preparations
(§4) Male ddY mice (24 to 30 g) were killed by decapitation and cerebral cortex (CCK-B) and pancreas (CCK-A) were extracted immediately. Each of cerebral cortex and pancreas was mixed with 50 mM Tris-HCl buffer (pH 7.4) and homogenized with a teflon-glass homogenizer and polytron homogenizer to obtain crude membrane specimens.
(§5) Preparation of test compounds and procedures of displacing assay A 1M solution of a compound to be tested in DMSO is prepared and diluted with 50% DMSO to obtain a ten-fold dilution series.
(§6) The reaction is initiated by the addition of crude membrane specimen to solutions of different concentration each containing [^3 H]CCk-8 (final concentration, 1 nM). The mixture is incubated for 90 min at 25° C., filtered through glass filter with aspiration and washed with a cooled 50 mM Tris buffer. After the addition of Aquazol-2 cocktail the radioactivity is counted. The same procedure was repeated using 50% DMSO solution or Ceruletide (final concentration, 1 μM) instead of a solution of test compound so as to obtain the control value regarding total binding or the value regarding non-specific binding, respectively. […]
(§7) specific binding of control=total binding (cpm)-non-specific binding (cpm); and specific binding of test compound=[…]-non-specific binding (cpm).
(In general: Loss of bound radioactivity is the signal in a displacement assay; it reports binding, not function.)

Another assay deals with gastric acid secretion. Put plainly: Inhibitory effect on gastric acid secretion by Schild method (pentagastrin-stimulated). It is filed as in vivo, rat (male Sprague Dawley). To be noted: intraduodenal, rat, read-out: Inhibitory Effect on acid secretion (Schild method), percent inhibition. The text has this:
Evaluation of Inhibitory Effect on Gastric Acid Secretion by Schild Method
Twenty four hour starved (ad libitum for water) male Sprague Dawley rats (8-week-old) were anesthetized with urethane (1.5 g/kg S.C.) and kept breathing with esophagus cannulas. After laparotomy, esophagus cannulas were inserted orally up to proventriculus and ligated around gastric cardiac. Perfusion cannulas were inserted from duodenum into stomach and ligated around pylorus. Another cannulas were placed into duodenum and ligated for administration of drug. After sutra of abdomen, stomach was perfused via the esophagus cannulas with physiological saline (37° C.) while collecting perfusate for a 15 min interval. The perfusate was subjected to titration with 0.001 N NaOH solution to determine the acidity. When the basal acid secretion became stable, pentagastrin ([…]) was administered in a sustained manner via common carotid vein for about 90 min until the acid secretion reached approximately the highest level, when a test compound (0.5% M.C. suspension) was administered into duodenum through cannulas. The perfusate was collected for a 15 min interval to monitor the acid secretion for 90 min. The percent inhibition was calculated as follows:
Percent inhibition (%)=100×(A-B)/(C-B)
A: the minimum value of total acidity observed after the administration of a test compound;
B: the total acidity obtained immediately before the administration of pentagastrin; and
C: the total acidity obtained immediately before the administration of a test compound.

The next assay has as its target T2, gastrin receptor (Cavia porcellus, UniProt H0VZC5).
T2 construct: stomach was extracted from each animal immediately, from which gastric glands were prepared; from tissue; host or cells: gastric (fundic) glands of male Hartley guinea pigs
T2 sequence (H0VZC5 1-426): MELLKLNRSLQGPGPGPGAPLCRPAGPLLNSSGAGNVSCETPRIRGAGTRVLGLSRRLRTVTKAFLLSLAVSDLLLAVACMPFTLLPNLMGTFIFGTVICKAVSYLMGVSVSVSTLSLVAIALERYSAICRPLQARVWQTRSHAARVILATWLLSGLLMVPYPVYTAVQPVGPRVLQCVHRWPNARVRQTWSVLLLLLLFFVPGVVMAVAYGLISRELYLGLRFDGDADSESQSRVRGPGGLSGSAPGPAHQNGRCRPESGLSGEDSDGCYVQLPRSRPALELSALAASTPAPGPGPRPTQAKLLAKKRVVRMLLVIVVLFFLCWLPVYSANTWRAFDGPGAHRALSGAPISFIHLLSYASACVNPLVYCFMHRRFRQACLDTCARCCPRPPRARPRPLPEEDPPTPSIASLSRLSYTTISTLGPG
Put plainly: Gastrin receptor antagonism, displacement of 125I-labeled gastrin, gastric (fundic) gland cells. To be noted: guinea pig gastric glands, 125I-gastrin 0.2 nM, 30 min, 25 °C; read-out: Receptor Gastrin (IC50). It is filed as binding, guinea pig (male Hartley). How it is done:
as §1
(1) Gastrin Receptor Antagonism
Preparation of gastric glands:
Male Hartley guinea pigs (450-600 g) were killed by bleeding and stomach was extracted from each animal immediately, from which gastric glands were prepared.
Preparation of test compounds and procedures of displacing assay
A 1M solution of a compound to be tested in DMSO is prepared and diluted with 50% DMSO to obtain a ten-fold dilution series.
The mixture is incubated for 30 min at 25° C., centrifuged at 2000 rpm for 5 min and the supernatant is removed by aspiration. To the pellet is added ice-cooled incubation buffer and mixed gently, followed by an immediate centrifugation and removal of the supernatant by aspiration. The radioactivity is counted on gamma counter. The same procedure was repeated using 50% DMSO solution or human gastrin I (final concentration, 2 μM) instead of a solution of test compound so as to obtain the control value regarding total binding or the value regarding non-specific binding, respectively. […]
as §7

For a further assay, the target named is T3, CCK-B receptor (Mus musculus, UniProt P56481).
T3 construct: crude membrane specimen from mouse cerebral cortex; from tissue; host or cells: cerebral cortex of male ddY mice, crude membranes
T3 sequence (P56481 1-453): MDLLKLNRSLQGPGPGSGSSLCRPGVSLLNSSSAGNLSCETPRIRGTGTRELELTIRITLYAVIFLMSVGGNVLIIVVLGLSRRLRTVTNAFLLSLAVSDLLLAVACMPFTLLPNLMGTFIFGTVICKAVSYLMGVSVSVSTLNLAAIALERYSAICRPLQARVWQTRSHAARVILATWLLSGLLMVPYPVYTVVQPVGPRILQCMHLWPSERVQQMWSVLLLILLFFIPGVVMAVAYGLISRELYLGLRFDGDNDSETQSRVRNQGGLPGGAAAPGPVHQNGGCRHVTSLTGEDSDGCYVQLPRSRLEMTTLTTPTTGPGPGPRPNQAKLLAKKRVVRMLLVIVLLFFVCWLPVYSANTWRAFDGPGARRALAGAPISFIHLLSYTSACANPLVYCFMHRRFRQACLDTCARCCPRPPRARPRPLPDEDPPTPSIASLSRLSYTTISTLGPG
As to the kind of experiment: CCK-B receptor antagonism, displacement of [3H]CCK-8, cerebral cortex crude membrane. The class given is binding, mouse (male ddY). To be noted: mouse cerebral cortex membrane, [3H]CCK-8 1 nM, 90 min, 25 °C; read-out: Receptor CCK-B (IC50). How it is done:
as §1, §2, §3, §4, §5, §6, §7

Bounds are passed on as bounds.

Regarding `Cc1cccc(NC(=O)NC2C(=O)N(CC3CC3)c3ccccc3N(CC3CC3)C2=O)c1` [Compound 8o, 1,5-Bis-(cyclopropylmethyl)-3-{N'-(m-tolyl)-ureido}-1H-1,5-benzodiazepine-2,4(3H,5H)-dione], the IC50 on CCK-A receptor stood at 860 nM; on gastrin receptor, 12 nM; at CCK-B receptor, 23 nM. Moreover, in the assay with gastric acid secretion, the inhibition in vivo at 0.3 mg/kg amounted to 60%.
On to `O=C(Nc1cccc(-c2nnn[nH]2)c1)NC1C(=O)N(CC(=O)c2cccs2)c2ccccc2N(CC(=O)c2cccs2)C1=O` [Compound 20-iv, 1,5-Bis-(thienylcarbonylmethyl)-3-(N'-(m-tetrazolylphenyl)ureido)-1H-1,5-benzodiazepine-2,4(3H,5H)-dione], for which the half-maximal inhibitory concentration (IC50) on CCK-A receptor came to 380 nM; on gastrin receptor it was 2 nM; at CCK-B receptor, 3 nM. In the assay on gastric acid secretion, the inhibition in vivo at 0.3 mg/kg came to 65%.
As to `O=C(O)CSc1cccc(NC(=O)NC2C(=O)N(CC(=O)C3CC3)c3ccccc3N(CC(=O)C3CC3)C2=O)c1` [Compound 17-ix, 1,5-Bis-(cyclopropylcarbonylmethyl)-3-(N'-(m-(carboxymethylthio)phenyl)ureido)-1H-l,5-benzodiazepine-2,4(3H,5H)-dione], the IC50 amounted to 500 nM on CCK-A receptor, 0.6 nM at gastrin receptor and 2 nM on CCK-B receptor. Moreover, the inhibition in vivo at 0.1 mg/kg in the assay on gastric acid secretion (0.1 mg/kg) is 74%.
Consider `CCOC(=O)CSc1cccc(NC(=O)NC2C(=O)N(CC(=O)C3CC3)c3ccccc3N(CC(=O)C3CC3)C2=O)c1` [Compound 17-viii, 1,5-Bis-(cyclopropylcarbonylmethyl)-3-(N'-(m-(carboethoxymethylthio)phenyl)ureido)-1H-1,5-benzodiazepine-2,4(3H,5H)-dione], for which the IC50 on CCK-A receptor was 460 nM; at gastrin receptor it was 2 nM; on CCK-B receptor, 6 nM. Besides, in the assay on gastric acid secretion, the inhibition in vivo at 0.3 mg/kg was found to be 76%.
Turning to `CC(=O)NS(=O)(=O)c1cccc(NC(=O)NC2C(=O)N(CC(=O)C3CC3)c3ccccc3N(CC(=O)C3CC3)C2=O)c1` [Compound 17-xi, 1,5-Bis-(cyclopropylcarbonylmethyl)-3-(N'-(m-(acetylsulfamoyl)phenyl)ureido)-1H-1,5-benzodiazepine-2,4(3H,5H)-dione], the concentration for half-maximal inhibition (IC50) on CCK-A receptor is greater than 10000 nM; at gastrin receptor, 6 nM; on CCK-B receptor, 115 nM. For the same compound, the inhibition in vivo at 0.3 mg/kg in the assay with gastric acid secretion is 39%.
For the compound `Cc1cccc(NC(=O)NC2C(=O)N(CC(=O)c3ccccc3C)c3ccccc3N(CC(=O)c3ccccc3C)C2=O)c1` [Compound 8d, 1,5-Bis-(o-methylphenacyl)-3-{N'-(m-tolyl)-ureido}-1H-1,5-benzodiazepine-2,4(3H,5H)-dione], the IC50 at CCK-A receptor was found to be 29 nM; at gastrin receptor it was 4 nM; on CCK-B receptor it was 11 nM. Also, in the assay on gastric acid secretion, the inhibition in vivo at 0.3 mg/kg was 66%.
For `CCOC(=O)COc1cccc(NC(=O)NC2C(=O)N(CC(=O)C3CC3)c3ccccc3N(CC(=O)C3CC3)C2=O)c1` [Compound 17-v, 1,5-Bis-(cyclopropylcarbonylmethyl)-3-(N'-(m-(carboethoxymethoxy)phenyl)ureido)-1H-1,5-benzodiazepine-2,4(3H,5H)-dione], the values for the IC50 on CCK-A receptor, on gastrin receptor and on CCK-B receptor were 3600 nM, 16 nM and 180 nM, respectively. For the same compound, in the assay with gastric acid secretion, the inhibition in vivo at 0.3 mg/kg was determined as 59%.
For `O=C(Nc1cccc(-c2nnn[nH]2)c1)NC1C(=O)N(CC(=O)N2CCCC2)c2ccccc2N(CC(=O)N2CCCC2)C1=O` [Compound 18-iv], in that order: 3600 nM, 4 nM, 38 nM and 65%.
As to `O=C(Nc1cccc(OCc2nnn[nH]2)c1)NC1C(=O)N(CC(=O)C2CC2)c2ccccc2N(CC(=O)C2CC2)C1=O` [Compound 17-vii, 1,5-Bis-(cyclopropylcarbonylmethyl)-3-(N'-(m-(tetrazoylmethoxy)phenyl)ureido)-1H-1,5-benzodiazepine-2,4(3H,5H)-dione], the IC50 on CCK-A receptor amounted to 1800 nM; at gastrin receptor, 11 nM; on CCK-B receptor, 4 nM. Besides, the inhibition in vivo at 0.3 mg/kg with gastric acid secretion is 68%.
For the compound `O=C(O)Cc1cccc(NC(=O)NC2C(=O)N(CC(=O)C3CC3)c3ccccc3N(CC(=O)C3CC3)C2=O)c1` [Compound 17-xiii, 1,5-Bis-(cyclopropylcarbonylmethyl)-3-(N'-(m-(carbomethyl)phenyl)ureido)-1H-1,5-benzodiazepine-2,4(3H,5H)-dione], the IC50 on CCK-A receptor stood at 4800 nM; at gastrin receptor, 2 nM; at CCK-B receptor, 7 nM. Further, the inhibition in vivo at 0.3 mg/kg in the assay on gastric acid secretion was 21%.
Regarding `Cc1cccc(NC(=O)NC2C(=O)N(CC(=O)OC(C)(C)C)c3ccccc3N(CC(=O)OC(C)(C)C)C2=O)c1` [Compound 8s, 1,5-Bis-(t-butoxycarbonylmethyl)-3-(N'-(m-tolyl)ureido)-1H-1,5-benzodiazepine-2,4(3H,5H)-dione], the IC50 on CCK-A receptor was determined as 100 nM; at gastrin receptor it was 2 nM; at CCK-B receptor, 2 nM.
